# Where two headings read alike, the source gives them in different places.
# Legend:
# PC3 cells [1] = assay: Cell metabolism inhibition assay (Cell titre Blue) with fatty acids; format: cell-based; settings: for Cellular Metabolic Activity: 100% = undrugged media
# Method: A cell metabolism inhibition assay was performed to determine the effect of different fatty acids on cellular metabolic rate. The fatty acids tested were α-Linolenic acid, omega 3 fatty acid (ALA), Arachidonic acid, omega 6 fatty acid (AA), 9Z, 11E conjugated Linoleic acid, omega 7 fatty acid (CLA), Docosahexaenoic acid, omega 3 fatty acid (DHA), Eicosapentaenoic acid, omega 3 fatty acid (EPA), Oleic acid, omega 9 fatty acid (OA), Ricinoleic acid, omega 9 hydroxylated fatty acid (RA).
# PC3 cells are from a cell line derived from a hormone refractory prostate cancer and are known to overexpress HSD10. PC3 cells were seeded at a density of 4,000 cells per well in a 96 well plate, and incubated at 37° C., 5% CO2 for 48 hours in standard growth media (F12K nutrient media, 7% Fetal Calf Serum, 2 mM L-Glutamine, 45 mg/L ascorbic acid). The media was then removed by pipette and replaced with the appropriate drug treatment as follows: 20 μM, or 40 μM, or 60 μM, or 80 μM, or 100 μM ALA in PC3 treatment media (F12K nutrient media, 125 uM fatty acid free BSA, 2 mM L-Glutamine, 45 mg/L ascorbic acid); 20 μM, or 40 μM, or 60 μM, or 80 μM, or 100 μM AA in PC3 treatment media; 20 μM, or 40 μM, or 60 μM, or 80 μM, or 100 μM CLA in PC3 treatment media; 20 μM, or 40 μM, or 60 μM, or 80 μM, or 100 μM DHA in PC3 treatment media; 20 μM, or 40 μM, or 60 μM, or 80 μM, or 100 μM EPA in PC3 treatment media; 20 μM, or 40 μM, or 60 μM, or 80 μM, or 100 μM OA in PC3 treatment media; and 20 μM, or 40 μM, or 60 μM, or 80 μM, or 100 μM RA in PC3 treatment media. After incubation in the drug treatment for 72 hours at 37° C., 5% CO2, 50 μL Cell titre Blue Assay Reagent was added to each well and the plate return to incubation at 37° C., 5% CO2, for a further 24 hours, at which time the absorbance at 620 nm was recorded. The reduction of absorbance at 620 nm represents a higher metabolic rate, and the data below has been normalized such that 100% represents cells that have been grown in the presence of undrugged media, and 0% represents wells containing no cells.
# HSD10 = biological target: T1, HSD10 (Homo sapiens, UniProt Q99714); assay: HSD10 Enzyme Inhibition Assay; format: biochemical; settings: 50 μM drug
# T1 construct: endogenous in cells; host or cells: PC3 cells
# T1 sequence (Q99714 1-261): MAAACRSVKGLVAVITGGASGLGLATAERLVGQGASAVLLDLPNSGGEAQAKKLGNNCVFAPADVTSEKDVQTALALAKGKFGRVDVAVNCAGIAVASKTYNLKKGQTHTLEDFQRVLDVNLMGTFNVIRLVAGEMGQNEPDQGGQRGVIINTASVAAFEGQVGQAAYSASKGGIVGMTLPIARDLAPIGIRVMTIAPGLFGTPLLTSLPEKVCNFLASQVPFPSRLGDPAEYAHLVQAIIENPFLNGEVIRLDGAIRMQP
# Method: An HSD10 inhibition assay was performed to determine the effect of several anti-psychotics on enzyme activity.
# (§1) PC3 cells are from a cell line derived from a hormone refractory prostate cancer and are known to overexpress HSD10. […] Cells line tests were carried out in presence and absence of testosterone for comparison. After incubation in the drug treatment for 96 hours at 37° C., 5% CO2, the supernatant was removed from all wells of cells, and cells washed with 200 μL PBS.
# (§2) After removal of the PBS, cell number was determined using a lysed cell LDH assay (CytoTox 96 Non-radioactive cytotoxicity assay (LDH Assay); Promega, Co., Madison Wis.). Cells were lysed with 0.9% Triton-X in PBS for 2 hours at 37° C., 5% CO2 and 50 μL of this cell lysate was transferred to a fresh 96 well plate. About 50 μL of CytoTox 96 assay reagent was added to the transferred cell lysate and this mixture was incubated at room temperature in the dark for 20 minutes. After the addition of 50 μL stop reagent, the optical absorbance was determined for each incubated mixture at 492 nm. […] The mean and standard error was calculated from at least 3 wells.
# PC3 cells [2] = assay: Cell growth inhibition, lysed cell LDH assay, prostate cancer cell line; format: cell-based; settings: 96 hours, 100% = no drug treatment (Table 3);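 note: 100% is cells receiving no drug treatment and 0% is wells without cells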
# Method: To determine whether Risperidone could be effective in inhibiting growth of cancer cells overexpressing HSD10, a lysed cell LDH assay was conducted using cells from a PC3 cell line.
# as §1, §2
# To determine the optimal concentration of Risperidone and CLA necessary to inhibit cell growth, a lysed cell LDH assay was conducted using various concentration of Risperidone and CLA. PC3 cells were cultured and a lysed cell LDH assay was conducted as described above, except that the various drug treatments evaluated contained either 0 μM, 12.5 μM, 25 μM, or 50 μM Risperidone in combination with 0 μM, 6.25 μM, 12.5 μM, 25 μM, 50 μM, or 100 μM CLA (see Table 3).
# as §2, with “PBS from the cell cultures described above,” for “PBS,”, “assay.” for “assay (CytoTox 96 Non-radioactive cytotoxicity assay (LDH Assay); Promega, Co., Madison Wis.).”
# PC-3M-luc cells = assay: Orthotopic prostate tumor mouse xenograft model; settings: single drug
# Method: Immunodeficeint male mice (athymic nude mice) were acclimated to the laboratory for at least one week prior to implantation of tumor. PC-3M-luc cells obtained directly from in vitro culture were then injected into the prostate on Day 0. Animals were divided into six groups of 12 mice each. Primary tumor size and metastases were assessed by bioluminescence measurements on day 6, 13, 20, 27, 34, and 40. On day 7 a five week treatment regime was initiated. Both individual drug and high and low dose combination were examined by administering the drugs twice daily on an individual body weight basis using a dose escalation protocol (Table 7). If tumors grew above a pre-determined level, or mice lost more than 10% of bodyweight, they were culled. The primary tumor was excised, weighed and measured. Individual organs were imaged to assess metastatic burden.
# BxPC-3 cells = assay: Orthotopic pancreatic tumor mouse xenograft model; format: in vivo, mice (athymic nude mice); design: key to Pancreatic tumor weight, vs vehicle / Bioluminescence imaging Area, vs vehicle / Bioluminescence imaging Average radiation, vs vehicle / Bioluminescence imaging Total flux, vs vehicle / Bioluminescence imaging Area (day 34), vs vehicle / Bioluminescence imaging Average radiation (day 34), vs vehicle / Bioluminescence imaging Total flux (day 34), vs vehicle / Body weight curves, vs vehicle / Body weight at sacrifice relative to Day −1 body weight, vs vehicle: ***: statistically significant difference with p-value <0.001; **: p-value <0.01; *: p-value <0.05; p-value <0.1; NS: Non-Significant; settings: 60 mg/kg intraperitoneal every third day
# Method: Animals were divided into four groups of 10 mice each which underwent the following treatment regime: Group 1, daily oral administration of vehicle comprising 1% (v/v) ethanol, 20% (v/v) PEG 400, 79% (v/v) acid solution and 0.4% (w/v) TWEEN™ 80 at a final pH of 3.1-3.3 (Control); Group 2, intraperitoneal administration of 60 mg/kg of Reference Compound gemcitabine every third day for four rounds followed by one week rest before repeating the dosing; Group 3, daily oral administration of 1 mg/kg of Test Compound VAL401; and Group 4, daily administration of 2 mg/kg Test Compound VAL401. Administration of Test and Reference Compounds began on Day 1 and continued until Day 33. Body weights of the animals were measured two times a week throughout the in-life phase and blood samples for PK analyses were collected from saphenous vein from all animals 2 hours after compound administration at study Day 24. […] The animals were sacrificed at Day 34. At the termination, brain tissues were collected and frozen. Tumors were weighed, measured in three dimensions followed by fixation and embedding in paraffin for possible histopathological assessment. Also spleen, liver and lungs were collected for possible analysis.
# Statistical analysis was performed with statistical software R (version 3.1.2). The parameters with multiple measurements in different time points per animal were analyzed using mixed-effects models and model contrasts. […] The obtained p-values values were adjusted for multiple comparisons if necessary. The continuous valued end-point parameters were analyzed using parametric or non-parametric test. If the groups were normally distributed with equal variance, parametric one-way ANOVA followed by Tukey's HSD post hoc test was used. If the assumptions were not fulfilled as such or after data transform (e.g. logarithmic), nonparametric Kruskal-Wallis test followed by Mann-Whitney U test was used.
# [3] = read-out: Oxidative Activity Drug Inhibition
# [4] = read-out: Reductive Activity Drug Inhibition
SMILES,Cellular Metabolic Activity (PC3 cells [1]; 20 μM fatty acid),Cellular Metabolic Activity (PC3 cells [1]; 40 μM fatty acid),Cellular Metabolic Activity (PC3 cells [1]; 60 μM fatty acid),Cellular Metabolic Activity (PC3 cells [1]; 80 μM fatty acid),Cellular Metabolic Activity (PC3 cells [1]; 100 μM fatty acid),inhibition at 50 µM (HSD10; [3]),inhibition at 50 µM (HSD10; [4]),also measured
"CCCCC/C=C\C/C=C\C/C=C\C/C=C\CCCC(=O)O [AA, Arachidonic acid]",107 ± 3.9%,90 ± 5.6%,78 ± 6.4%,66 ± 7.2%,60 ± 5.9%,–,–,–
"CC/C=C\C/C=C\C/C=C\CCCCCCCC(=O)O [ALA, α-Linolenic acid]",118 ± 0.5%,118 ± 0.9%,118 ± 0.2%,117 ± 0.9%,114 ± 1.2%,–,–,–
CN(C)CCCN1c2ccccc2Sc2ccc(Cl)cc21 [Chlorpromazine],–,–,–,–,–,8%,18%,Oxidative Activity Rate (HSD10): 7.7 µM/min; Reductive Activity Rate (HSD10): 7.2 µM/min
CN(C)CCCN1c2ccccc2CCc2ccc(Cl)cc21 [Clomipramine],–,–,–,–,–,73%,15%,Oxidative Activity Rate (HSD10): 2.3 µM/min; Reductive Activity Rate (HSD10): 7.5 µM/min
CN1CCN(C2=Nc3cc(Cl)ccc3Nc3ccccc32)CC1 [Clozapine],–,–,–,–,–,43%,15%,–
"CC/C=C\C/C=C\C/C=C\C/C=C\C/C=C\C/C=C\CCC(=O)O [DHA, Docosahexaenoic acid]",90 ± 8.2%,74 ± 7.6%,58 ± 5.9%,49 ± 7.7%,34 ± 7.0%,–,–,metabolic inhibition (PC3 cells [1]; 60-100 μM range): 40-65%; Percentage of Lysed Cells (PC3 cells [2]; 12.5 μM of each drug): 109 ± 1.1%; Percentage of Lysed Cells (PC3 cells [2]; 25 μM of each drug): 102 ± 3.5%; Percentage of Lysed Cells (PC3 cells [2]; 50 μM of each drug): 95 ± 3.8%
CN(C)CCOC(c1ccccc1)c1ccccc1 [Diphenhydramine],–,–,–,–,–,5%,6%,Oxidative Activity Rate (HSD10): 8.0 µM/min; Reductive Activity Rate (HSD10): 8.3 µM/min
CC(=O)O[C@@]12CO[C@@H]1C[C@H](O)[C@@]1(C)C(=O)[C@H](O)C3=C(C)[C@@H](OC(=O)[C@H](O)[C@@H](NC(=O)OC(C)(C)C)c4ccccc4)C[C@@](O)([C@@H](OC(=O)c4ccccc4)[C@H]21)C3(C)C [Docetaxel],–,–,–,–,–,–,–,"body weight throughout the study (PC-3M-luc cells; by Day 40): on a trend of losing weight; Tumor Growth Inhibition (PC-3M-luc cells; calculated on Day 34, dosing per Table 7): 94%; Animal Survival (overall survivorship) (PC-3M-luc cells; day 40, dosing per Table 7): 100%"
"CC/C=C\C/C=C\C/C=C\C/C=C\C/C=C\CCCC(=O)O [EPA, Eicosapentaenoic acid]",94 ± 9.4%,71 ± 8.2%,67 ± 7.4%,49 ± 7.4%,37 ± 5.9%,–,–,metabolic inhibition (PC3 cells [1]; 80-100 μM range): 50-65%
"Nc1ccn([C@@H]2O[C@H](CO)[C@@H](O)C2(F)F)c(=O)n1 [Gemcitabine, gemcitabine]",–,–,–,–,–,–,–,"Bioluminescence imaging Area (day 34), vs vehicle (BxPC-3 cells): NS; Bioluminescence imaging Area, vs vehicle (BxPC-3 cells): NS; Bioluminescence imaging Average radiation (day 34), vs vehicle (BxPC-3 cells): NS; Bioluminescence imaging Average radiation, vs vehicle (BxPC-3 cells): NS; Bioluminescence imaging Total flux (day 34), vs vehicle (BxPC-3 cells): NS; Bioluminescence imaging Total flux, vs vehicle (BxPC-3 cells): NS; Body weight at sacrifice relative to Day −1 body weight, vs vehicle (BxPC-3 cells): NS; Body weight curves, vs vehicle (BxPC-3 cells): NS; Pancreatic tumor volume, vs vehicle (BxPC-3 cells): ↓**; Pancreatic tumor weight, vs vehicle (BxPC-3 cells): NS"
"CCCCCCCC/C=C\CCCCCCCC(=O)O [OA, Oleic acid]",109 ± 2.7%,108 ± 0.9%,111 ± 2.2%,110 ± 2.2%,111 ± 2.0%,–,–,–
"CCCCCC[C@@H](O)C/C=C\CCCCCCCC(=O)O [RA, Ricinoleic acid]",91 ± 6.0%,94 ± 4.7%,90 ± 6.2%,90 ± 6.0%,94 ± 3.1%,–,–,–

# From US10111877B2, “Modulators of androgen synthesis” (Tangent Reprofiling Limited, priority 2012, dated 2018)
